# In patent US7344730B1, “Soil granulates with controlled active ingredient release (cr soil granulates)” (BASF SE, priority 1998, dated 2008):
# Like-named read-outs stand apart in the source and are kept apart here.
# Tests used:
# [1] = Granule elution apparatus: release of active ingredient from CR granules into about 4000 ml water in 24 h; format: physicochemical; details: for active ingredient detected in the collected liquid: Example 3 granules (PVA+PVP coating), 30 g of granules, 3980 g of water in 24 hours; for Release rate in 24 h at 40° C., 4000 ml: coating percentage 4%
# Procedure: The plant serves to determine the delayed release of active ingredients or salts from controlled release (CR) formulations. A frit on which the granules to be tested are placed is located in a cylindrical vessel at the lower edge. Underneath the frit there is an S-shaped drain which causes liquid to drain from the cylinder only when it is 80% full. Water (if appropriate together with wetter) is pumped through the CR formulations in a cylindrical feed container (approx. volume 100 ml) by means of a hose pump in such a way that the feed material is surrounded completely by water. The percolating water is collected in receiving vessels. An automatic switch causes the receiving vessels to be changed in order to determine the release of active ingredients over time. […] Unless elution temperatures are specified, a bath temperature of 30° C. was set.
# The elution plant operates 24 hours a day in conjunction with the program control. One elution takes 24 hours, and during this time approx. 4000 ml of fluid are pumped through the feed material and collected in receiving vessels. The active ingredient content in the eluate is determined by means of HPLC or GC. Whether release is uniform can be checked with reference to the feed material. The cumulative value provides a measure for assessing granule permeability.
# The release rate of the active ingredients was determined in the above-described elution apparatus. To this end, 30 g of the carrier granules were weighed into a trapped container equipped with a frit. In 24 hours, an amount of 3980 g of water was pumped through the container and collected. 124 mg of fenpropimorph and 19 mg of epoxiconazole were detected in the collected liquid.
# [2] = format: in vivo, winter wheat; details: for epoxiconazole detected per kg of biomass: winter wheat, in vivo
# Procedure: This product was applied together with cereal seed (winter wheat). On average, approx. 3 fungicidal active ingredient pellets were deposited subterraneously per seed kernel. Epoxiconazole was detected in the growing cereal plants two and six months after application. Two months after sowing, 0.038 mg were detected per kg of biomass, and six months after application 0.022 mg were still detected per kg of biomass.
# Erysiphe-graminis = assay: Field experiments on spring wheat Star: disease level Erysiphe graminis; format: in vivo; details: soil application in CR granules combined with strobilurin, Table 12 series
# Excerpt: Due to the rapid release of active ingredient, the long-term action of this sample was insufficient, so that only a minor effect was discernible in comparison with the untreated sample.
# The carriers employed were urea and Rasenfloranid granules.
smiles,measurement,setting,value
"CC(Cc1ccc(C(C)(C)C)cc1)CN1C[C@@H](C)O[C@@H](C)C1 (mixture of isomers) [Comp. 1, (±)-cis-4-[3-(4-tert-butylphenyl)-2-methylpropyl]-2,6-dimethyl-morpoline]",active ingredient detected in the collected liquid,[1],124 mg
"Fc1ccc([C@]2(Cn3cncn3)O[C@H]2c2ccccc2Cl)cc1 (racemic) [Comp. 6, (2RS,3SR)-1-[3-(2-chlorophenyl)-2,3-epoxy-2-(4-fluorophenyl)-propyl]-1H-1,2,4-triazole]","controlled release of the active ingredient in the soil, duration","[2]; PVA+PVP coating, Example 3",at least 6 months
same,epoxiconazole detected per kg of biomass,[2]; 2 months,0.038 mg per kg of biomass
same,epoxiconazole detected per kg of biomass,[2]; 6 months,0.022 mg per kg of biomass
same,active ingredient detected in the collected liquid,[1],19 mg
same,"Release rate in 24 h at 40° C., 4000 ml",[1]; filler (starch C-Pur) 0%,2.70%
same,"Release rate in 24 h at 40° C., 4000 ml",[1]; filler (starch C-Pur) 10%,3.30%
same,"Release rate in 24 h at 40° C., 4000 ml",[1]; filler (starch C-Pur) 20%,7.15%
CC(=O)Oc1ccccc1C(=O)O [acetylsalicylic acid],activity-enhancing effect in combination (words),Erysiphe-graminis,activity-enhancing effects
"CC(=O)Oc1ccccc1C(=O)O [Comp. 7, acetylsalicylic acid]",activity-enhancing effect in combination (words),Erysiphe-graminis; listed as Compound 7,same activity-enhancing effects as Bion®
